Experimental data published in ChEMBL document CHEMBL3734705, “Synthesis and in vitro cytotoxicity of novel C-12 substituted-14-deoxy-andrographolide derivatives as potent anti-cancer agents” (2015).

Assays:
[1] = Cytotoxicity against human HCT116 cells assessed as growth level at 10 uM after 48 hrs by SRB assay; format: functional, HCT-116
[2] = Cytotoxicity against human NCI-ADR-RES cells assessed as growth level at 10 uM after 48 hrs by SRB assay; format: functional
[3] = Cytotoxicity against human RXF393 cells assessed as growth inhibition at 10 uM after 48 hrs by SRB assay; format: functional; details: RXF 393, 48 h, read-out: GI
[4] = Cytotoxicity against human HOP62 cells assessed as growth inhibition at 10 uM after 48 hrs by SRB assay; format: functional; details: HOP-62, 48 h, read-out: GI
[5] = Cytotoxicity against human SF268 cells assessed as growth inhibition at 10 uM after 48 hrs by SRB assay; format: functional; details: SF-268, 48 h, read-out: GI
NCI-H322M = assay: Cytotoxicity against human NCI-H322M cells assessed as growth inhibition at 10 uM after 48 hrs by SRB assay; format: functional; details: read-out: GI
[6] = Cytotoxicity against human SKOV3 cells assessed as growth level at 10 uM after 48 hrs by SRB assay; format: functional, SK-OV-3
Malme-3M = assay: Cytotoxicity against human MALME-3M cells assessed as growth level at 10 uM after 48 hrs by SRB assay; format: functional
T47D = assay: Cytotoxicity against human T47D cells assessed as growth level at 10 uM after 48 hrs by SRB assay; format: functional
[7] = Cytotoxicity against human UO31 cells assessed as growth inhibition at 10 uM after 48 hrs by SRB assay; format: functional; details: UO-31, 48 h, read-out: GI
786-0 = assay: Cytotoxicity against human 786-0 cells assessed as growth inhibition at 10 uM after 48 hrs by SRB assay; format: functional; details: 786-0, 48 h, read-out: GI
ACHN = assay: Cytotoxicity against human ACHN cells assessed as growth inhibition at 10 uM after 48 hrs by SRB assay; format: functional; details: read-out: GI
[8] = Cytotoxicity against human Caki1 cells assessed as growth inhibition at 10 uM after 48 hrs by SRB assay; format: functional; details: CAKI-1, 48 h, read-out: GI
[9] = Cytotoxicity against human SNB75 cells assessed as growth level at 10 uM after 48 hrs by SRB assay; format: functional, SNB-75
SK-MEL-28 = assay: Cytotoxicity against human SK-MEL-28 cells assessed as growth level at 10 uM after 48 hrs by SRB assay; format: functional
EKVX [10] = assay: Cytotoxicity against human EKVX cells assessed as growth inhibition at 10 uM after 48 hrs by SRB assay; format: functional; details: read-out: GI
[11] = Cytotoxicity against human HCT15 cells assessed as growth inhibition at 10 uM after 48 hrs by SRB assay; format: functional; details: HCT-15, 48 h, read-out: GI
[12] = Cytotoxicity against human SF295 cells assessed as growth level at 10 uM after 48 hrs by SRB assay; format: functional, SF-295
[13] = Cytotoxicity against human BT549 cells assessed as growth inhibition at 10 uM after 48 hrs by SRB assay; format: functional; details: BT-549, 48 h, read-out: GI
[14] = Cytotoxicity against human HOP92 cells assessed as growth inhibition at 10 uM after 48 hrs by SRB assay; format: functional; details: HOP-92, 48 h, read-out: GI
MCF7 = assay: Cytotoxicity against human MCF7 cells assessed as growth level at 10 uM after 48 hrs by SRB assay; format: functional
[15] = Cytotoxicity against human LOXIMVI cells assessed as growth level at 10 uM after 48 hrs by SRB assay; format: functional, LOX IMVI
NCI-H226 = assay: Cytotoxicity against human NCI-H226 cells assessed as growth inhibition at 10 uM after 48 hrs by SRB assay; format: functional; details: NCI-H226, 48 h, read-out: GI
[16] = Cytotoxicity against human RPMI8226 cells assessed as growth level at 10 uM after 48 hrs by SRB assay; format: functional, RPMI-8226
[17] = Cytotoxicity against human UACC62 cells assessed as growth inhibition at 10 uM after 48 hrs by SRB assay; format: functional; details: UACC-62, 48 h, read-out: GI
KM12 = assay: Cytotoxicity against human KM12 cells assessed as growth inhibition at 10 uM after 48 hrs by SRB assay; format: functional; details: KM12, 48 h, read-out: GI
[18] = Cytotoxicity against human PC3 cells assessed as growth inhibition at 10 uM after 48 hrs by SRB assay; format: functional; details: PC-3, 48 h, read-out: GI
[19] = Cytotoxicity against human LOXIMVI cells assessed as growth inhibition at 10 uM after 48 hrs by SRB assay; format: functional; details: LOX IMVI, read-out: GI
[20] = Cytotoxicity against human SF539 cells assessed as growth inhibition at 10 uM after 48 hrs by SRB assay; format: functional; details: SF-539, 48 h, read-out: GI
A549 = assay: Cytotoxicity against human A549 cells assessed as growth level at 10 uM after 48 hrs by SRB assay; format: functional
HT-29 [21] = assay: Cytotoxicity against human HT-29 cells assessed as growth level at 10 uM after 48 hrs by SRB assay; format: functional
MDA-MB-231 = assay: Cytotoxicity against human MDA-MB-231 cells assessed as growth inhibition at 10 uM after 48 hrs by SRB assay; format: functional; details: MDA-MB-231, 48 h, read-out: GI
A498 = assay: Cytotoxicity against human A498 cells assessed as growth inhibition at 10 uM after 48 hrs by SRB assay; format: functional; details: A498, 48 h, read-out: GI
CCRF-CEM = assay: Cytotoxicity against human CCRF-CEM cells assessed as growth inhibition at 10 uM after 48 hrs by SRB assay; format: functional; details: read-out: GI
[22] = Cytotoxicity against human RXF393 cells assessed as growth level at 10 uM after 48 hrs by SRB assay; format: functional, RXF 393
[23] = Cytotoxicity against human SKOV3 cells assessed as growth inhibition at 10 uM after 48 hrs by SRB assay; format: functional; details: SK-OV-3, 48 h, read-out: GI
[24] = Cytotoxicity against human NCI-ADR-RES cells assessed as growth inhibition at 10 uM after 48 hrs by SRB assay; format: functional; details: read-out: GI
U-251 = assay: Cytotoxicity against human U251 cells assessed as growth level at 10 uM after 48 hrs by SRB assay; format: functional
EKVX [25] = assay: Cytotoxicity against human EKVX cells assessed as growth level at 10 uM after 48 hrs by SRB assay; format: functional
HT-29 [26] = assay: Cytotoxicity against human HT-29 cells assessed as growth inhibition at 10 uM after 48 hrs by SRB assay; format: functional; details: HT-29, 48 h, read-out: GI
[27] = Cytotoxicity against human HCT116 cells assessed as growth inhibition at 10 uM after 48 hrs by SRB assay; format: functional; details: HCT-116, 48 h, read-out: GI
[28] = Cytotoxicity against human HCC2998 cells assessed as growth level at 10 uM after 48 hrs by SRB assay; format: functional, HCC 2998
[29] = Cytotoxicity against human SNB19 cells assessed as growth level at 10 uM after 48 hrs by SRB assay; format: functional, SNB-19
[30] = Cytotoxicity against human SNB19 cells assessed as growth inhibition at 10 uM after 48 hrs by SRB assay; format: functional; details: SNB-19, 48 h, read-out: GI

C=C1CC[C@@H]2[C@](C)(COC(C)=O)[C@H](OC(C)=O)CC[C@@]2(C)[C@@H]1CC(NCc1ccc(F)cc1)C1=CCOC1=O (mixture of isomers)
Activity [1]: 33.73%
Activity [2]: 28.29%
inhibition of growth at 10 µM [3]: 19.4%
inhibition of growth at 10 µM [4]: 21.2%
inhibition of growth at 10 µM [5]: 37.4%
inhibition of growth at 10 µM (NCI-H322M): 27.5%
Activity [6]: 94.32%
Activity (Malme-3M): 65.1%
Activity (T47D): 26.6%
inhibition of growth at 10 µM [7]: 68.7%
inhibition of growth at 10 µM (786-0): 13.2%
inhibition of growth at 10 µM (ACHN): 49.1%
inhibition of growth at 10 µM [8]: 54%
Activity [9]: 58.06%
Activity (SK-MEL-28): 77.79%
inhibition of growth at 10 µM (EKVX [10]): 50%
inhibition of growth at 10 µM [11]: 63%
Activity [12]: 96.13%
inhibition of growth at 10 µM [13]: 71.3%
inhibition of growth at 10 µM [14]: 81.2%
Activity (MCF7): 16.58%
Activity [15]: 9.33%
inhibition of growth at 10 µM (NCI-H226): 59.9%
Activity [16]: 1.27%
inhibition of growth at 10 µM [17]: 67.8%
inhibition of growth at 10 µM (KM12): 53.5%
inhibition of growth at 10 µM [18]: 79.2%
inhibition of growth at 10 µM [19]: 90.7%
inhibition of growth at 10 µM [20]: 35.5%
Activity (A549): 57.9%
Activity (HT-29 [21]): 21.32%
inhibition of growth at 10 µM (MDA-MB-231): 39.1%
inhibition of growth at 10 µM (A498): 48.3%
inhibition of growth at 10 µM (CCRF-CEM): 90.8%
Activity [22]: 80.59%
inhibition of growth at 10 µM [23]: 5.68%
inhibition of growth at 10 µM [24]: 71.8%
Activity (U-251): 48.01%
Activity (EKVX [25]): 50.01%
inhibition of growth at 10 µM (HT-29 [26]): 78.7%
inhibition of growth at 10 µM [27]: 66.3%
Activity [28]: 89.3%

C=C1CC[C@@H]2[C@](C)(COC(C)=O)[C@H](OC(C)=O)CC[C@@]2(C)[C@@H]1CC(NCc1ccccc1)C1=CCOC1=O (mixture of isomers)
Activity [1]: 42.32%
Activity [2]: 23.47%
inhibition of growth at 10 µM [3]: 25.7%
inhibition of growth at 10 µM [4]: 11%
inhibition of growth at 10 µM [5]: 37.9%
inhibition of growth at 10 µM (NCI-H322M): 23%
Activity [6]: 79.25%
Activity (Malme-3M): 77.12%
Activity (T47D): 14.23%
inhibition of growth at 10 µM [7]: 70.9%
inhibition of growth at 10 µM (786-0): 28.6%
inhibition of growth at 10 µM (ACHN): 53.6%
inhibition of growth at 10 µM [8]: 50.4%
Activity [9]: 76.94%
Activity (SK-MEL-28): 68.59%
inhibition of growth at 10 µM (EKVX [10]): 46.1%
inhibition of growth at 10 µM [11]: 59%
Activity [12]: 63.88%
inhibition of growth at 10 µM [13]: 71.9%
inhibition of growth at 10 µM [14]: 58.3%
Activity (MCF7): 29.82%
Activity [15]: 44.58%
inhibition of growth at 10 µM (NCI-H226): 88.6%
Activity [16]: 3.18%
inhibition of growth at 10 µM [17]: 61.2%
inhibition of growth at 10 µM (KM12): 60.9%
inhibition of growth at 10 µM [18]: 89.9%
inhibition of growth at 10 µM [19]: 55.4%
inhibition of growth at 10 µM [20]: 20.5%
Activity (A549): 49.21%
inhibition of growth at 10 µM (MDA-MB-231): 35.3%
inhibition of growth at 10 µM (A498): 43.8%
inhibition of growth at 10 µM (CCRF-CEM): 79.1%
Activity [22]: 74.33%
inhibition of growth at 10 µM [23]: 20.8%
Activity [29]: 68.18%
inhibition of growth at 10 µM [24]: 76.5%
Activity (U-251): 47.58%
Activity (EKVX [25]): 53.91%
inhibition of growth at 10 µM [30]: 31.8%
inhibition of growth at 10 µM [27]: 57.7%
Activity [28]: 93.69%
